{"source": "ChEMBL document CHEMBL1123525", "about": "“Synthesis and biological activities of 5-deaza analogues of aminopterin and folic acid” (1986)", "key": {"P388": {"system": "P388", "test": "Compound was evaluated for inhibitory activity against P-388 leukemic cells in vitro; Range 1.8x10E-8 to 2x10E-7 M", "type": "functional", "settings": "Mus musculus, read-out: ID50 (the source's name)"}, "L1210": {"system": "L1210", "test": "Compound was evaluated for inhibitory activity against L-1210 leukemic cells in vitro; Range 1.8x10E-8 to 2x10E-7 M", "type": "functional", "settings": "Mus musculus, read-out: ID50 (the source's name)"}}}
{"smiles": "Cc1c(CNc2ccc(C(=O)NC(CCC(=O)O)C(=O)O)cc2)cnc2nc(N)nc(N)c12", "note": "(configuration not stated)", "values": [{"measurement": "IC50", "setting": "P388", "value": 200, "unit": "nM"}, {"measurement": "IC50", "setting": "L1210", "value": 200, "unit": "nM"}]}
